This is an account of results in ChEMBL document CHEMBL5390237, “Discovery of Selective Histone Deacetylase 1 and 2 Inhibitors: Screening of a Focused Library Constructed by Click Chemistry, Kinetic Binding Analysis, and Biological Evaluation” (J Med Chem, 2023).

SMILES strings stand for the structures.

Usually inhibition stands for the change of the read-out against control, counted positive when it falls.

The experiment deals with Histone deacetylase 2 (Homo sapiens, UniProt Q92769). The experiment in a line: Inhibition of full-length recombinant human C-terminal GST tagged HDAC2 expressed in Sf9 insect cells using aminoluciferin peptide substrate at 100 nM preincubated for 3 hrs followed by substrate addition and measured after 30 mins by HDAC-Glo I/II chemiluminescence assay. Conditions: time 3.5 hrs.
Chain of Histone deacetylase 2 (Q92769 whole entry): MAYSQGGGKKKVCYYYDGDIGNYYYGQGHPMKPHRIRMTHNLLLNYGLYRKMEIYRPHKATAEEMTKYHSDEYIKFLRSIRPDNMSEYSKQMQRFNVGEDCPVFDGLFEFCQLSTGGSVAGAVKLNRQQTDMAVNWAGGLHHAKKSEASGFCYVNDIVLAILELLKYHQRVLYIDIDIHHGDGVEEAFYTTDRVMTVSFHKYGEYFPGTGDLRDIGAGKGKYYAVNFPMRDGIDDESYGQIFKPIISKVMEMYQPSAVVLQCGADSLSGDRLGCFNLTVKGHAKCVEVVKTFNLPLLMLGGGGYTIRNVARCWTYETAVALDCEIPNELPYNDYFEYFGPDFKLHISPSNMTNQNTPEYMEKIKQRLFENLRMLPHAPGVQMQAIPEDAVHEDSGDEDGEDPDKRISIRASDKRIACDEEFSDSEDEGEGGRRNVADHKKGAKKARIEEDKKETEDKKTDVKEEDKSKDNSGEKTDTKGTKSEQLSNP
Consider `Nc1ccc(-c2cccs2)cc1NC(=O)c1ccc(-c2cn(CCc3cccc4ccccc34)nn2)s1`, for which the inhibition came to 0%.
On to `Nc1ccc(-c2ccc(F)cc2)cc1NC(=O)CCc1cn(-c2ccc(O)cc2)nn1`, for which the inhibition is 3%.
With `Nc1ccc(-c2cccs2)cc1NC(=O)c1cccc(-c2cn(Cc3cccc(-c4ccccc4)c3)nn2)c1`, the inhibition was determined as 0%.
For the compound `CCc1ccc(Cn2cc(CCC(=O)Nc3cc(-c4ccsc4)ccc3N)nn2)cc1`, the inhibition is 6%.
For the compound `Nc1ccc(-c2cccs2)cc1NC(=O)c1cccc(-c2cn(CCc3ccccc3C(F)(F)F)nn2)c1`, the inhibition was determined as 2%.
To `Nc1ccc(-c2cccs2)cc1NC(=O)c1cn(-c2ccc(I)cc2)nn1` belongs 0%.
`Nc1ccc(-c2ccccc2)cc1NC(=O)CCc1cn(CCC2CCCCC2)nn1`: the inhibition was 0%.
For the compound `Nc1ccc(-c2ccc(F)cc2)cc1NC(=O)CCc1cn(Cc2ccc(OC(F)(F)F)cc2)nn1`, the inhibition is 0%.
Turning to `Nc1ccc(-c2ccsc2)cc1NC(=O)CCc1cn(C[S+]([O-])c2ccccc2)nn1` (stereo not given), the inhibition was found to be 8%.
Turning to `Cc1cccc(CCn2cc(C(=O)Nc3cc(-c4ccccc4)ccc3N)nn2)c1`, the inhibition was found to be 1%.
On to `Nc1ccc(-c2cccnc2)cc1NC(=O)CCc1cn(-c2ccc(I)cc2)nn1`, for which the inhibition was found to be 1%.
In the case of `Nc1ccc(-c2cccs2)cc1NC(=O)CCc1cn(CCCCCCC(=O)O)nn1` it was 9%; in that of `COc1ccc(Cn2cc(-c3ccc(C(=O)Nc4cc(-c5cccs5)ccc4N)cc3)nn2)cc1`, 4%; in that of `Nc1ccc(-c2cccnc2)cc1NC(=O)CCc1cn(CC2CCCCC2)nn1`, 0%.
Regarding `Nc1ccc(-c2ccccc2)cc1NC(=O)CCc1cn(CCc2cccc3ccccc23)nn1`, the inhibition was found to be 0%.
Take `Nc1ccc(-c2cccs2)cc1NC(=O)c1ccc(-c2cn(-c3ccccc3-c3ccccc3)nn2)s1`: the inhibition worked out at 0%.
Consider `Nc1ccc(-c2ccsc2)cc1NC(=O)c1cn(CCc2cccc(F)c2)nn1`, for which the inhibition was 0%.
As for `Nc1ccc(-c2ccsc2)cc1NC(=O)CCc1cn(CCc2ccccc2Cl)nn1`, the inhibition was found to be 11%.
Regarding `Nc1ccc(-c2cccs2)cc1NC(=O)c1ccc(-c2cn(CCc3ccccc3)nn2)cc1`, the inhibition turned out to be 65%.
As to `Nc1ccc(-c2ccccc2)cc1NC(=O)c1cn(CCc2cccc(-c3ccccc3)c2)nn1`, the inhibition came to 0%.
As to `Nc1ccc(-c2cccs2)cc1NC(=O)c1ccc(-c2cn(CCCCCCC(=O)O)nn2)s1`, the inhibition was found to be 28%.
For `Nc1ccc(-c2ccccc2)cc1NC(=O)CCc1cn(/C=C/c2ccccc2)nn1`, the inhibition is 15%.
In the case of `COc1ccccc1CCn1cc(CCC(=O)Nc2cc(-c3cccnc3)ccc2N)nn1` it was 10%; in that of `Nc1ccc(-c2ccc(F)cc2)cc1NC(=O)CCc1cn(CCc2ccc(C(F)(F)F)cc2)nn1`, 1%.
In the case of `Nc1ccc(-c2cccs2)cc1NC(=O)CCc1cn(CCc2ccsc2)nn1` it was 13%.
On to `Nc1ccc(-c2ccc(F)cc2)cc1NC(=O)CCc1cn(Cc2cccc3ccccc23)nn1`, for which the inhibition was 14%.
`Nc1ccc(-c2ccc(F)cc2)cc1NC(=O)c1cn(CCc2ccc([N+](=O)[O-])cc2)nn1`: the inhibition is 12%.
In the case of `Nc1ccc(-c2ccc(F)cc2)cc1NC(=O)CCc1cn(CS(=O)(=O)c2ccccc2)nn1` it was 13%; in that of `Nc1ccc(-c2ccsc2)cc1NC(=O)CCc1cn(-c2ccc(Br)cc2)nn1`, 3%; in that of `Nc1ccc(-c2ccsc2)cc1NC(=O)c1cn(Cc2cc3ccccc3s2)nn1`, 0%.
With `Nc1ccc(-c2ccc(F)cc2)cc1NC(=O)CCc1cn(-c2cccc3ccccc23)nn1`, the inhibition is 0%.
`Nc1ccc(-c2cccs2)cc1NC(=O)c1cn(Cc2cc3ccccc3s2)nn1`: the inhibition was 8%.
Consider `Nc1ccc(-c2ccc(F)cc2)cc1NC(=O)c1cn(CCCCC(=O)O)nn1`, for which the inhibition amounted to 22%.
Turning to `Nc1ccc(-c2cccs2)cc1NC(=O)c1ccc(-c2cn(Cc3cccc4ccccc34)nn2)cc1`, the inhibition is 14%.
On to `Cc1ccc(CCn2cc(CCC(=O)Nc3cc(-c4ccc(F)cc4)ccc3N)nn2)cc1`, for which the inhibition turned out to be 25%.
On to `Nc1ccc(-c2ccc(F)cc2)cc1NC(=O)CCc1cn(CCCCCCC(=O)O)nn1`, for which the inhibition was 6%.
For the compound `Nc1ccc(-c2ccsc2)cc1NC(=O)c1cn(Cc2cccc3ccccc23)nn1`, the inhibition worked out at 4%.
In the case of `Nc1ccc(-c2ccsc2)cc1NC(=O)c1cn(Cc2ccc3ccccc3c2)nn1` it was 3%; in that of `COc1ccccc1CCn1cc(C(=O)Nc2cc(-c3ccc(F)cc3)ccc2N)nn1`, 5%.
In the case of `Nc1ccc(-c2cccs2)cc1NC(=O)c1cccc(-c2cn(CCCCCC(=O)O)nn2)c1`, the inhibition is 41%.
With `Nc1ccc(-c2cccs2)cc1NC(=O)c1cn(CCc2ccc(C(=O)O)cc2)nn1`, the inhibition was found to be 16%.
`Cc1ccc(-n2cc(CCC(=O)Nc3cc(-c4ccccc4)ccc3N)nn2)cc1C`: the inhibition came to 0%.
`Nc1ccc(-n2cc(C(=O)Nc3cc(-c4cccs4)ccc3N)nn2)cc1`: the inhibition is 10%.
Take `Nc1ccc(-c2cccs2)cc1NC(=O)CCc1cn(Cc2ccc(-c3ccccc3)cc2)nn1`: the inhibition is 0%.
With `Nc1ccc(-c2cccs2)cc1NC(=O)c1cn(Cc2ccc(C(=O)O)cc2)nn1`, the inhibition was found to be 32%.
In the case of `Nc1ccc(-c2ccsc2)cc1NC(=O)CCc1cn(CCc2cccc(F)c2)nn1`, the inhibition came out at 21%.
To `Nc1ccc(-c2ccc(F)cc2)cc1NC(=O)CCc1cn(CCCCCc2ccccc2)nn1` belongs 5%; to `Nc1ccc(-c2ccccc2)cc1NC(=O)c1cn(Cc2nc3ccccc3[nH]2)nn1`, 11%.
Turning to `Nc1ccc(-c2cccs2)cc1NC(=O)c1ccc(-c2cn(CCC3CCCC3)nn2)s1`, the inhibition was 0%.
As for `Nc1ccc(-c2ccc(F)cc2)cc1NC(=O)c1cn(CCc2ccc(F)cc2)nn1`, the inhibition came to 0%.
`Nc1ccc(-c2ccccc2)cc1NC(=O)c1cn(CCCCCCCC(=O)O)nn1`: the inhibition amounted to 0%.
For the compound `Nc1ccc(-c2cccs2)cc1NC(=O)c1ccc(-c2cn(CCc3ccc(F)cc3)nn2)s1`, the inhibition was found to be 18%.
For the compound `Nc1ccc(-c2ccc(F)cc2)cc1NC(=O)c1cn(CCCCCC(=O)O)nn1`, the inhibition amounted to 20%.
As to `COc1ccc(-n2cc(CCC(=O)Nc3cc(-c4cccnc4)ccc3N)nn2)cc1`, the inhibition was 9%.
For `Nc1ccc(-c2cccs2)cc1NC(=O)c1ccc(-c2cn(Cc3nc4ccccc4[nH]3)nn2)s1`, the inhibition was 63%.
In the case of `Cc1csc(CCn2cc(CCC(=O)Nc3cc(-c4ccccc4)ccc3N)nn2)n1` it was 29%; in that of `COc1ccc(CCn2cc(CCC(=O)Nc3cc(-c4ccccc4)ccc3N)nn2)cc1`, 17%; in that of `Cc1ccccc1CCn1cc(CCC(=O)Nc2cc(-c3ccccc3)ccc2N)nn1`, 4%.
As for `Nc1ccc(-c2ccccc2)cc1NC(=O)c1cn(CCCCCCC(=O)O)nn1`, the inhibition stood at 0%.
Regarding `Nc1ccc(-c2cccnc2)cc1NC(=O)CCc1cn(Cc2ccc3ccccc3n2)nn1`, the inhibition stood at 3%.
As for `Nc1ccc(-c2cccs2)cc1NC(=O)c1ccc(-c2cn(CCCCCCC(=O)O)nn2)cc1`, the inhibition came to 0%.
As for `Nc1ccc(-c2cccs2)cc1NC(=O)c1cn(Cc2ccc3ccccc3c2)nn1`, the inhibition amounted to 17%.
For `Nc1ccc(-c2ccccc2)cc1NC(=O)c1cn(Cc2cccc(C(=O)O)c2)nn1`, the inhibition was found to be 0%.
`Nc1ccc(-c2ccsc2)cc1NC(=O)CCc1cn(CCc2ccc(C(F)(F)F)cc2)nn1`: the inhibition is 2%.
As to `Nc1ccc(-c2ccc(F)cc2)cc1NC(=O)c1cn(Cc2ccc(OC(F)(F)F)cc2)nn1`, the inhibition amounted to 0%.
In the case of `Nc1ccc(-c2cccs2)cc1NC(=O)c1ccc(-c2cn(C[S+]([O-])c3ccccc3)nn2)s1` (stereo not given), the inhibition came to 60%.
In the case of `Nc1ccc(-c2ccsc2)cc1NC(=O)c1cn(CCC2CCCC2)nn1`, the inhibition is 0%.
On to `Nc1ccc(-c2cccs2)cc1NC(=O)c1cccc(-c2cn(CCN3CCOCC3)nn2)c1`, for which the inhibition is 48%.
To `Nc1ccc(-c2ccsc2)cc1NC(=O)CCc1cn(CCC2CCCCC2)nn1` belongs 0%.
With `Nc1ccc(-c2cccs2)cc1NC(=O)c1cn(-c2ccc(O)cc2)nn1`, the inhibition is 0%.
As for `Nc1ccc(-c2ccc(F)cc2)cc1NC(=O)CCc1cn(CCc2cccc(Cl)c2)nn1`, the inhibition stood at 17%.
For the compound `Nc1ccc(-c2cccs2)cc1NC(=O)c1ccc(-c2cn(CCc3c[nH]c4ccccc34)nn2)s1`, the inhibition amounted to 38%.
As to `Nc1ccc(-c2ccc(F)cc2)cc1NC(=O)CCc1cn(CCc2ccsc2)nn1`, the inhibition was 16%.
On to `Nc1ccc(-c2cccs2)cc1NC(=O)CCc1cn(CCC23CC4CC(CC(C4)C2)C3)nn1`, for which the inhibition turned out to be 5%.
To `Nc1ccc(-c2ccc(F)cc2)cc1NC(=O)c1cn(C[S+]([O-])c2ccccc2)nn1` (stereo not given) belongs 0%.
On to `Nc1ccc(-c2cccs2)cc1NC(=O)c1ccc(-c2cn(Cc3nc4ccccc4[nH]3)nn2)cc1`, for which the inhibition is 37%.
As for `Nc1ccc(-c2cccs2)cc1NC(=O)c1cccc(-c2cn(-c3cccc4ccccc34)nn2)c1`, the inhibition was 0%.
In the case of `Nc1ccc(-c2ccsc2)cc1NC(=O)c1cn(CCCCCc2ccccc2)nn1`, the inhibition came to 0%.
For the compound `Nc1ccc(-c2ccsc2)cc1NC(=O)c1cn(CCc2ccccc2C(F)(F)F)nn1`, the inhibition amounted to 0%.
On to `Nc1ccc(-c2ccsc2)cc1NC(=O)CCc1cn(CCc2ccccn2)nn1`, for which the inhibition was 12%.
For the compound `Nc1ccc(-c2ccc(F)cc2)cc1NC(=O)CCc1cn(Cc2ccc(-c3ccccc3)cc2)nn1`, the inhibition is 0%.
In the case of `COc1ccccc1CCn1cc(CCC(=O)Nc2cc(-c3ccsc3)ccc2N)nn1` it was 20%; in that of `Nc1ccc(-c2ccc(F)cc2)cc1NC(=O)c1cn(CCC2CCCC2)nn1`, 0%; in that of `Nc1ccc(-c2ccccc2)cc1NC(=O)c1cn(Cc2ccc(Oc3ccccc3)cc2)nn1`, 0%.
With `Nc1ccc(-c2cccs2)cc1NC(=O)c1cn(CCCCCC(=O)O)nn1`, the inhibition worked out at 0%.
